Earlier results in patent US12343417B2, “Antiperspirant compositions” (Conopco, Inc., priority 2018, dated 2025).

Tested on: Staphylococcus epidermidis
Conditions: 80% or greater reduction in growth over 16 to 24 hours at 37° C.

Question: Which MIC does the source give for `CCO` [ethanol] here?
Answer: Its MIC is “greater than 1 mg·ml^−1”.

Question: Which MIC does the source give for `CC(C)=CCCC(C)=CCCC(C)=CCO` [farnesol, 3,7,11-trimethyldodeca-2,6, 10-trienol] here?
Answer: The MIC was “ca. 25 μg·ml^−1”.

Question: For `Oc1cc(Cl)ccc1Oc1ccc(Cl)cc1Cl` [triclosan, 2′,4,4′-trichloro,2-hydroxy-diphenyl ether], which MIC is on record?
Answer: The MIC was 0.01 to 10 µg/mL.
